Data: US8580790B2, “(Heterocycle/condensed piperidine)-(piperazinyl)-1-alkanone or (heterocycle/condensed pyrrolidine)-(piperazinyl)-1-alkanone derivatives and use thereof as p75 inhibitors” (Sanofi, priority 2009, dated 2013)
Where a name gives a salt, the structure may show the parent alone.

Row | SMILES | melting point [°C]
1 | C[C@@H]1CN(c2ccc(C(F)(F)F)nc2)C[C@H](C)N1CC(=O)N1CCc2nn(-c3ccccc3)cc2C1 [compound 20, 2-[(2S,6R)-2,6-dimethyl-4-(6-trifluoromethylpyridin-3-yl)piperazin-1-yl]-1-(2-phenyl-2,4,6,7-tetrahydropyrazolo[4,3-c]pyridin-5-yl)ethanone] | 174 to 175
2 | Cc1nc(-c2ccc(N3C4CCC3CN(CC(=O)N3CCc5nc(-c6ccccc6)sc5C3)C4)nc2)no1 | 190 to 192
3 | COC(=O)c1ccc(N2CC3CCC(C2)N3CC(=O)N2CCc3nn(-c4ccccc4)cc3C2)nc1 | 157 to 158
4 | C[C@@H]1CN(c2ncc(C(=O)O)cn2)C[C@H](C)N1CC(=O)N1CCc2nn(-c3ccccc3)cc2C1 [compound 75, 2-{(3S,5R)-3,5-dimethyl-4-[2-oxo-2-(2-phenyl-2,4,6,7-tetrahydropyrazolo[4,3-c]pyridin-5-yl)ethyl]piperazin-1-yl}pyrimidine-5-carboxylic acid] | 94 to 97
5 | O=C(O)c1ccc(N2C3CCC2CN(CC(=O)N2CCc4nc(-c5ccc(F)cc5)sc4C2)C3)nc1 | 240 to 244
6 | C[C@@H]1CN(c2ccc(C(=O)O)cn2)C[C@H](C)N1CC(=O)N1CCc2nn(-c3ccccn3)cc2C1 [compound 140, 6-{(3S,5R)-3,5-dimethyl-4-[2-oxo-2-(2-pyridin-2-yl-2,4,6,7-tetrahydropyrazolo[4,3-c]pyridin-5-yl)ethyl]piperazin-1-yl}nicotinic acid] | 147 to 150
7 | O=C(CN1CCN(c2ccc(C(F)(F)F)cn2)C(=O)C1)N1CCc2c(cnn2CC(F)(F)F)C1 (as salt: oxalate) [compound 66, 4-{2-oxo-2-[1-(2,2,2-trifluoroethyl)-1,4,6,7-tetrahydropyrazolo[4,3-c]pyridin-5-yl]ethyl}-1-(5-trifluoromethylpyridin-2-yl)piperazin-2-one] | 82 to 83
8 | Cc1nc(-c2ccc(N3C[C@@H](C)N(CC(=O)N4CCc5nn(-c6ccccc6)cc5C4)[C@@H](C)C3)nc2)no1 [compound 89, 2-{(2S,6R)-2,6-dimethyl-4-[5-(5-methyl[1,2,4]oxadiazol-3-yl)-pyridin-2-yl]piperazin-1-yl}-1-(2-phenyl-2,4,6,7-tetrahydropyrazolo[4,3-c]pyridin-5-yl)ethanone] | 163 to 164
9 | O=C(OC1CCC1)c1ccc(N2C3CCC2CN(CC(=O)N2CCc4nn(-c5ccccc5)cc4C2)C3)nc1 | 176 to 177
10 | O=C(CN1CC2CCC(C1)N2c1ccc(C(F)(F)F)cn1)N1CCc2cc(-c3ccccc3)oc2C1 | 155
11 | C[C@@H]1CN(c2ccc(C(F)(F)F)nc2)C[C@H](C)N1CC(=O)N1CCc2nc(-c3ccccc3)sc2C1 [compound 18, 2-[(2S,6R)-2,6-dimethyl-4-(6-trifluoromethylpyridin-3-yl)piperazin-1-yl]-1-(2-phenyl-6,7-dihydro-4H-thiazolo[5,4-c]pyridin-5-yl)ethanone] | 168 to 169
12 | O=C(CN1CC2CCC(C1)N2c1ccc(C(F)(F)F)cn1)N1CCc2nc(-c3ccc(F)cc3)[nH]c2C1 | 148 to 150
13 | C[C@@H]1CN(c2ccc(C(F)(F)F)cn2)C[C@H](C)N1CC(=O)N1CCc2nn(C)cc2C1 (as salt: HCl) [compound 100, 2-[(2S,6R)-2,6-dimethyl-4-(5-trifluoromethylpyridin-2-yl)piperazin-1-yl]-1-(2-methyl-2,4,6,7-tetrahydropyrazolo[4,3-c]pyridin-5-yl)ethanone] | 50 to 51
14 | CCn1cc2c(n1)CCN(C(=O)CN1CCN(c3ccc(C(F)(F)F)cn3)C(=O)C1)C2 [compound 148, 4-[2-(2-ethyl-2,4,6,7-tetrahydropyrazolo[4,3-c]pyridin-5-yl)-2-oxoethyl]-1-(5-trifluoromethylpyridin-2-yl)piperazin-2-one] | 151 to 152
15 | C[C@@H]1CN(c2cccnc2)C[C@H](C)N1CC(=O)N1CCc2nc(-c3ccccc3)[nH]c2C1 [compound 145, 2-((2S,6R)-2,6-dimethyl-4-pyridin-3-ylpiperazin-1-yl)-1-(2-phenyl-3,4,6,7-tetrahydroimidazo[4,5-c]pyridin-5-yl)ethanone] | 207 to 209
16 | CC(C)(C)n1ncc2c1CCN(C(=O)CN1CC3CCC(C1)N3c1ncc(F)cn1)C2 | 142 to 143
17 | C[C@@H]1CN(c2ccc(C(F)(F)F)cn2)C[C@H](C)N1CC(=O)N1CCc2nn(CC(F)(F)F)cc2C1 (as salt: oxalate) [compound 126, 2-[(2S,6R)-2,6-dimethyl-4-(5-trifluoromethylpyridin-2-yl)piperazin-1-yl]-1-[2-(2,2,2-trifluoroethyl)-2,4,6,7-tetrahydropyrazolo[4,3-c]pyridin-5-yl]ethanone] | 151 to 153
18 | C[C@@H]1CN(c2cccnc2)C[C@H](C)N1CC(=O)N1CCc2nn(-c3ccc(C(F)(F)F)cn3)cc2C1 [compound 143, 2-((2S,6R)-2,6-dimethyl-4-pyridin-3-ylpiperazin-1-yl)-1-[2-(5-trifluoromethylpyridin-2-yl)-2,4,6,7-tetrahydropyrazolo[4,3-c]pyridin-5-yl]ethanone] | 196 to 197
19 | C[C@@H]1CN(c2cncnc2)C[C@H](C)N1CC(=O)N1CCc2nc(-c3ccccc3)sc2C1 [compound 22, 2-((2S,6R)-2,6-dimethyl-4-pyrimidin-5-yl-piperazin-1-yl)-1-(2-phenyl-6,7-dihydro-4H-thiazolo[5,4-c]pyridin-5-yl)ethanone] | 215 to 216
20 | O=C(CN1CC2CCC(C1)N2c1ncc(F)cn1)N1CCc2nc(-c3ccccc3)ncc2C1 | 212 to 213

Row | SMILES | melting point [°C]
21 | O=C(CN1CC2CCC(C1)N2c1ncc(F)cn1)N1CCc2nn(-c3ccc(C(F)(F)F)cn3)cc2C1 | 208 to 209
22 | O=C(O)c1ccc(N2CC3CCC(C2)N3CC(=O)N2CCc3nn(-c4ccccc4)cc3C2)nc1 | 207 to 208
23 | N#Cc1ccc(N2C3CCC2CN(CC(=O)N2CCc4nn(-c5ccccc5)cc4C2)C3)nc1 | 198 to 200
24 | O=C(CN1CCN(c2ccc(C(F)(F)F)cn2)C(=O)C1)N1CCc2oc(-c3ccccc3)nc2C1 [compound 83, 4-[2-oxo-2-(2-phenyl-6,7-dihydro-4H-oxazolo[4,5-c]pyridin-5-yl)ethyl]-1-(5-trifluoromethylpyridin-2-yl)piperazin-2-one] | 140 to 142
25 | C[C@@H]1CN(c2ccc(C(=O)O)cn2)C[C@H](C)N1CC(=O)N1CCc2nc(-c3ccccc3)[nH]c2C1 [compound 116, 6-{(3S,5R)-3,5-dimethyl-4-[2-oxo-2-(2-phenyl-3,4,6,7-tetrahydroimidazo[4,5-c]pyridin-5-yl)ethyl]piperazin-1-yl}nicotinic acid] | 190 to 192
26 | COc1ccc(-n2cc3c(n2)CCN(C(=O)CN2CC4CCC(C2)N4c2ncc(F)cn2)C3)cc1 | 186 to 188
27 | N#Cc1ccc(N2C3CCC2CN(CC(=O)N2CCc4nc(-c5ccc(F)cc5)sc4C2)C3)nc1 | 212 to 213
28 | O=C(CN1CC2CCC(C1)N2c1ncc(F)cn1)N1CCc2c(cnn2CC(F)(F)F)C1 (as salt: oxalate) | 160 to 162
29 | C[C@@H]1CN(CC(=O)N2CCc3nc(-c4ccccc4)sc3C2)[C@@H](C)CN1c1ccc(C(=O)O)cn1 [compound 63, 6-{(2R,5S)-2,5-dimethyl-4-[2-oxo-2-(2-phenyl-6,7-dihydro-4H-thiazolo[5,4-c]pyridin-5-yl)ethyl]piperazin-1-yl}nicotinic acid] | 220 to 221
30 | C[C@@H]1CN(c2ccc(C(=O)O)cn2)C[C@H](C)N1CC(=O)N1CCc2c(cnn2C(C)(C)C)C1 [compound 93, 6-{(3S,5R)-4-[2-(1-tert-butyl-1,4,6,7-tetrahydropyrazolo[4,3-c]pyridin-5-yl)-2-oxoethyl]-3,5-dimethylpiperazin-1-yl}nicotinic acid] | 150 to 151
31 | O=C(CN1CCN(c2ccc(C(F)(F)F)cn2)C(=O)C1)N1CCc2nn(-c3ccc(C(F)(F)F)cn3)cc2C1 [compound 65, 4-{2-oxo-2-[2-(5-trifluoromethylpyridin-2-yl)-2,4,6,7-tetrahydropyrazolo[4,3-c]pyridin-5-yl]ethyl}-1-(5-trifluoromethylpyridin-2-yl)piperazin-2-one] | 200 to 201
32 | O=C(CN1CCN(c2ccc(-c3ccn[nH]3)cn2)CC1)N1CCc2nc(-c3ccccc3)sc2C1 [compound 134, 1-(2-phenyl-6,7-dihydro-4H-thiazolo[5,4-c]pyridin-5-yl)-2-{4-[5-(2H-pyrazol-3-yl)pyridin-2-yl]piperazin-1-yl}ethanone] | 231 to 237
33 | C[C@@H]1CN(c2cnccn2)C[C@H](C)N1CC(=O)N1CCc2nn(-c3ccc(C(F)(F)F)cn3)cc2C1 [compound 111, 2-((3S,5R)-3,5-dimethyl-2,3,5,6-tetrahydro[1,2′]bipyrazinyl-4-yl)-1-[2-(5-trifluoromethylpyridin-2-yl)-2,4,6,7-tetrahydropyrazolo[4,3-c]pyridin-5-yl]ethanone] | 150 to 151
34 | O=C(CN1CC2CCC(C1)N2c1ncc(F)cn1)N1CCc2nc(-c3ccncc3)sc2C1 | 193 to 194
35 | Cn1nnc(-c2ccc(N3C4CCC3CN(CC(=O)N3CCc5nn(-c6ccccc6)cc5C3)C4)nc2)n1 | 230 to 231
36 | O=C(CN1CC2CCC(C1)N2c1ncc(F)cn1)N1CCc2c(cnn2-c2ccccc2)C1 | 148 to 150
37 | COc1ccc(-c2nc3c(s2)CN(C(=O)CN2CCN(c4ccc(C(F)(F)F)cn4)C(=O)C2)CC3)cc1 [compound 34, 4-{2-[2-(4-methoxyphenyl)-6,7-dihydro-4H-thiazolo[5,4-c]pyridin-5-yl]-2-oxoethyl}-1-(5-trifluoromethylpyridin-2-yl)piperazin-2-one] | 191 to 193
38 | O=C(CN1CC2CCC(C1)N2c1ncc(F)cn1)N1CCc2cc(-c3ccccc3)[nH]c2C1 | 240 to 242
39 | O=C(CN1CCN(c2ccc(C(F)(F)F)cn2)C(=O)C1)N1CCc2nc(-c3ccsc3)sc2C1 [compound 42, 4-[2-oxo-2-(2-thiophen-3-yl-6,7-dihydro-4H-thiazolo[5,4-c]pyridin-5-yl)ethyl]-1-(5-trifluoromethylpyridin-2-yl)piperazin-2-one] | 179 to 180
